Source: the supplement of paper PMC10307832

Key:
Assay in all cases: relative viability (nuclei count vs DMSO), 5 days (fraction); higher = more cells survive
[1] = compound: CC1(C)CCC(CN2CCN(c3ccc(C(=O)NS(=O)(=O)c4ccc(NCC5CCOCC5)c([N+](=O)[O-])c4)c(Oc4cnc5[nH]ccc5c4)c3)CC2)=C(c2ccc(Cl)cc2)C1 [Venetoclax] + N=C(N)NC(=N)NCCc1ccccc1 [Phenformin] (partner 250 µM)
Procedure, shortened: (§1)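 Each reported value is a median over duplicate plates. It expresses relative viability: treated-well nuclei count divided by vehicle-well nuclei count. Lung cancer cell lines in 1536-well plates were dosed by pin tool a day after seeding, alone with one drug or with a fixed anchor-drug dose plus five library-drug doses (not always all listed) in √10 steps, and nuclei were counted after 5 days.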

[2] = compound: Cn1cnc2c(F)c(Nc3ccc(Br)cc3Cl)c(C(=O)NOCCO)cc21 [Selumetinib] + Nc1nc2[nH]cc(CCc3ccc(C(=O)N[C@@H](CCC(=O)O)C(=O)O)cc3)c2c(=O)[nH]1 [Pemetrexed] (partner 0.2 µM)
Procedure, shortened: as §1

[3] = compound: Cn1cnc2c(F)c(Nc3ccc(Br)cc3Cl)c(C(=O)NOCCO)cc21 [Selumetinib] + Cc1nc(NC(=O)N2CCC[C@H]2C(N)=O)sc1-c1ccnc(C(C)(C)C(F)(F)F)c1 [Alpelisib] (partner 2 µM)
Procedure, shortened: as §1

[4] = compound: CC1(C)CCC(CN2CCN(c3ccc(C(=O)NS(=O)(=O)c4ccc(NCC5CCOCC5)c([N+](=O)[O-])c4)c(Oc4cnc5[nH]ccc5c4)c3)CC2)=C(c2ccc(Cl)cc2)C1 [Venetoclax] + Cc1nc(NC(=O)N2CCC[C@H]2C(N)=O)sc1-c1ccnc(C(C)(C)C(F)(F)F)c1 [Alpelisib] (partner 2 µM)
Procedure, shortened: as §1

Cell Line: UMC-11
- relative viability ([1]; first compound 0.01 µM): 0.286
- relative viability ([1]; first compound 0.03162 µM): 0.319
- relative viability ([1]; first compound 0.1 µM): 0.32
- relative viability ([1]; first compound 0.3162 µM): 0.291
- relative viability ([1]; first compound 1 µM): 0.292
- relative viability ([2]; first compound 0.02 µM): 0.771
- relative viability ([2]; first compound 0.06325 µM): 0.788
- relative viability ([2]; first compound 0.2 µM): 0.827
- relative viability ([2]; first compound 0.6325 µM): 0.903
- relative viability ([3]; first compound 0.02 µM): 0.97
- relative viability ([3]; first compound 0.06325 µM): 1.1
- relative viability ([3]; first compound 0.2 µM): 1.01
- relative viability ([3]; first compound 0.6325 µM): 0.986
- relative viability ([4]; first compound 0.01 µM): 0.924
- relative viability ([4]; first compound 0.03162 µM): 1.05
- relative viability ([4]; first compound 0.1 µM): 0.926
- relative viability ([4]; first compound 0.3162 µM): 0.923
- relative viability ([4]; first compound 1 µM): 0.915
